{"source": "patent US20150087967A1", "about": "“METHOD AND APPARATUS USING MAGNETIC RESONANCE IMAGING FOR TISSUE PHENOTYPING AND MONITORING” (Oregon Health & Science University, priority 2012, published 2015)", "tested_on": "soft tissue sarcomas", "assay": "Phase I clinical trial in soft tissue sarcoma patients: MRI (DCE-MRI, DWI, RECIST) after two weeks of Sorafenib only treatment (TP1) versus before therapy (TP0)", "assay_type": "in vivo, human", "protocol": "Patients with biopsy-proven, grade 2-3, deep, and >5 cm soft tissue sarcomas participated in a phase I clinical trial in which the vascular endothelial growth factor receptor (VEGFR) inhibitor, Sorafenib, was added to a preoperative chemoradiotherapy regimen. Research MRI studies were performed at time-point zero (TP0)—before therapy, TP1, after two weeks of Sorafenib only treatment, and TP2, after eight more weeks of treatment with Sorafenib plus chemoradiation therapy, followed by surgery and pathology review including estimation of tumor histologic necrosis. A total of eleven patients consented to the research MRI scans, with 9 of them having at least two DCE-MRI studies (at TP0 and TP1). In these 9 patients, five masses were located in the thigh, two in the calf, one in the knee, and one in the shoulder.\nThe MRI studies were performed using a 3T Siemens instrument with the body transmit and phased-array body matrix (combined with a spine matrix) receive RF coils. Following scout and axial T2-weighted MRI, sagittal diffusion-weighted imaging (DWI) was performed (in seven of the 9 patients) using a spin-echo single-shot EPI sequence with TE/TR=104/8000 ms, 24-36 cm FOV, 5 mm slice thickness with zero gap, 192×192 matrix size, and b values of 0, 500, and 1000 s/mm^2 applied in three orthogonal directions.\nSubsequently, a 3D RF-spoiled gradient-echo sequence was used to acquire sagittal DCE-MRI data with 10 degree flip angle, TE/TR=[…], and 320×160 matrix size. […]\nADC trace maps were generated with manufacturer's DWI data processing software. […] The arterial input functions (AIFs) used for the quantitative analyses were directly measured from ROIs placed in a femoral artery (for thigh, knee, and calf tumors) and an axillary artery (for the shoulder mass). The whole tumor ROI DWI/DCE-MRI parameter values were calculated by averaging the ROI values from each of the image slices covering the entire tumor, weighted by the pixel numbers within the image slice ROIs. Pixel parameter values were analyzed with histograms and the amplitude and median values were obtained. […]", "data": [{"compound": "CNC(=O)c1cc(Oc2ccc(NC(=O)Nc3ccc(Cl)c(C(F)(F)F)c3)cc2)ccn1", "note": "[Sorafenib]", "values": [{"measurement": "change in ADC (apparent diffusion coefficient)", "setting": "% change at TP1 (two weeks of Sorafenib only) relative to TP0", "result": "small"}, {"measurement": "change in tumor size (RECIST)", "setting": "% change at TP1 (two weeks of Sorafenib only) relative to TP0, 9 patients", "result": "small"}, {"measurement": "tumor vascular effect detected by DCE-MRI biomarkers", "setting": "patients with grade 2-3 soft tissue sarcomas, after two weeks of Sorafenib only treatment (TP1)", "result": "Tumor vascular shut-down induced by Sorafenib preceded cell death"}]}]}
